{
  "source": "patent US4005073A",
  "about": "“6-Acyl derivatives of aminopenicillanic acid” (priority 1974, dated 1977)",
  "key": {"Pseudomonas Aeriginmos": {"tested_on": "Pseudomonas Aeriginmos", "assay": "CD50 in the mouse, Pseudomonas Aeriginmos", "format": "in vivo", "text": "(§1) |CD50 (mg/kg) in the mouse"}, "Escherichia coli": {"tested_on": "Escherichia coli", "assay": "CD50 in the mouse, Escherichia coli", "format": "in vivo", "text": "as §1"}, "[1]": {"tested_on": "S. aureous (penicillin resistant)", "assay": "CD50 in the mouse, S. aureous (penicillin resistant)", "format": "in vivo", "text": "as §1"}, "Acute Toxicity": {"assay": "Acute Toxicity", "conditions": "mouse, in vivo", "text": "as §1"}, "Proteus Vulganis": {"tested_on": "Proteus Vulganis", "assay": "CD50 in the mouse, Proteus Vulganis", "format": "in vivo", "text": "as §1"}, "[2]": {"conditions": "Pseudomonas, po, read-out: CD50"}},
  "note": "Like-named read-outs stand apart in the source and are kept apart here.",
  "data": [
    {"compound": "CCOC(=O)C(CC(C)C)C(=O)N[C@@H]1C(=O)N2[C@@H]1SC(C)(C)[C@@H]2C(=O)O", "note": "(some centres unmarked) [(1-[ethoxycarbonyl-3-methylbutyl)]-penicillin sodium]", "values": [
      {"measurement": "ED50", "setting": "Pseudomonas Aeriginmos; [2]", "value": "~100", "unit": "mg/kg"},
      {"measurement": "ED50", "setting": "Pseudomonas Aeriginmos; sc, Pseudomonas Aeriginmos, mouse, S.C., read-out: CD50 (the source's name)", "value": "~80", "unit": "mg/kg"},
      {"measurement": "ED50", "setting": "Escherichia coli; po, P.O.", "value": 14, "unit": "mg/kg"},
      {"measurement": "ED50", "setting": "Escherichia coli; sc, S.C.", "value": 2.1, "unit": "mg/kg"},
      {"measurement": "ED50", "setting": "[1]; po, P.O.", "value": "~100", "unit": "mg/kg"},
      {"measurement": "ED50", "setting": "[1]; sc, S.C.", "value": 22, "unit": "mg/kg"},
      {"measurement": "LD50", "setting": "Acute Toxicity", "value": 5000, "unit": "mg/kg"},
      {"measurement": "LD50", "setting": "Acute Toxicity; iv", "value": "2000 to 4000", "unit": "mg/kg"}
    ]},
    {"compound": "CC(C)CC(C(=O)O)C(=O)N[C@@H]1C(=O)N2[C@@H]1SC(C)(C)[C@@H]2C(=O)O", "note": "(some centres unmarked) [(1-Carboxy-3-methyl-butyl)-penicillin di-sodium]", "values": [
      {"measurement": "ED50", "setting": "Pseudomonas Aeriginmos; Pseudomonas, sc, read-out: CD50", "value": 124, "unit": "mg/kg"},
      {"measurement": "ED50", "setting": "Proteus Vulganis; sc, S.C.", "value": 6.2, "unit": "mg/kg"},
      {"measurement": "ED50", "setting": "Escherichia coli; sc, S.C.", "value": 2.4, "unit": "mg/kg"},
      {"measurement": "ED50", "setting": "[1]; sc, S.C.", "value": 34, "unit": "mg/kg"},
      {"measurement": "LD50", "setting": "Acute Toxicity; iv", "value": "2000 to 4000", "unit": "mg/kg"}
    ]},
    {"compound": "CC(C)CC(C(=O)N[C@@H]1C(=O)N2[C@@H]1SC(C)(C)[C@@H]2C(=O)O)C(=O)OCc1ccccc1", "note": "(some centres unmarked) [(1-benzyloxycarbonyl-3-methylbutyl)-penicillin sodium]", "values": [
      {"measurement": "ED50", "setting": "Pseudomonas Aeriginmos; [2]", "value": 142, "unit": "mg/kg"},
      {"measurement": "ED50", "setting": "Proteus Vulganis; po, P.O.", "value": 8.9, "unit": "mg/kg"},
      {"measurement": "ED50", "setting": "Escherichia coli; po, P.O.", "value": 9, "unit": "mg/kg"},
      {"measurement": "LD50", "setting": "Acute Toxicity; po", "value": "2500 to 5000", "unit": "mg/kg"}
    ]}
  ]
}
